The text below walks through data of US7485641B2, “Substituted 3-amino-pyrrolidino-4-lactams” (Pfizer, Inc., priority 2006, dated 2009).

Structures can show the parent of a compound that is named as a salt.

The test has as its target T1, DPP-IV (Homo sapiens, UniProt P27487).
T1 construct: purchased Enzyme Systems Products SPE-01
The experiment in a line: In vitro assay for dipeptidyl peptidase inhibition. In kind it is biochemical. To be noted: n-value given in brackets; for IC50: read-out: DPP-IV IC50; for inhibition at 0.3 µM / DPP-IV Percent Inhibition at 300 nM: at 300 nM; for inhibition at 0.3 µM: read-out: DPP-IV Percent Inhibition at 300 nM.

T1 sequence (P27487 whole entry, species assumed): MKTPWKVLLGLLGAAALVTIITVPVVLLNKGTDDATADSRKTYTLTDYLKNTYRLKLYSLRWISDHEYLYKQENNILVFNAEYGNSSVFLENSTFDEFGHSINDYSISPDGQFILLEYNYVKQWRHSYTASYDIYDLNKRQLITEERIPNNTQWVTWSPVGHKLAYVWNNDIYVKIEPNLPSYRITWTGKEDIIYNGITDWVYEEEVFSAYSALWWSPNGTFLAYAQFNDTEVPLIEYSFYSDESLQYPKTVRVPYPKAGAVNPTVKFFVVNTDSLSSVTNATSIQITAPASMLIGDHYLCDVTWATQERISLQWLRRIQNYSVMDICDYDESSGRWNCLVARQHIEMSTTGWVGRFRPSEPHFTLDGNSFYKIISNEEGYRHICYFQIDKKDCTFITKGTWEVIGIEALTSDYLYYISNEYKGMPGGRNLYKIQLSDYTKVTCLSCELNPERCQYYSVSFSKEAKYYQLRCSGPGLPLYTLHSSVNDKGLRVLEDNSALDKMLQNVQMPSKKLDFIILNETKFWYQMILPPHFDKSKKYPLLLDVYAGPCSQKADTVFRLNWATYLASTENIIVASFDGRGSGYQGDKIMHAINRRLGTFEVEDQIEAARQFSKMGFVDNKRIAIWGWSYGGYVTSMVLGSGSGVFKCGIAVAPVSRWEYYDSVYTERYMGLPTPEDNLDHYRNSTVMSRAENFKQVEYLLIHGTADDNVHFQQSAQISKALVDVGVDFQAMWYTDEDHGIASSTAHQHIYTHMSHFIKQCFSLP

The IC50 is the concentration that gives 50% inhibition. In the case of `N[C@H]1CN(c2ncnc(N3CC[C@@H](O)C3)n2)C[C@@H]1N1CCCCC1=O` [Example 38, 1-((3S,4S)-4-Amino-1-(4-((R)-3-hydroxypyrrolidin-1-yl)-1,3,5-triazin-2-yl)pyrrolidin-3-yl)piperidin-2-onetrifluoroacetate], the IC50 stood at 205 nM.

For `CO[C@@H]1CCN(c2ncnc(N3C[C@H](N)[C@@H](N4CCCCC4=O)C3)n2)C1` [Example 39, 1-((3S,4S)-4-Amino-1-(4-((R)-3-methoxypyrrolidin-1-yl)-1,3,5-triazin-2-yl)pyrrolidin-3-yl)piperidin-2-onetrifluoroacetate], the IC50 came out at 325 nM. For `CO[C@H]1CCN(c2ncnc(N3C[C@H](N)[C@@H](N4CCCCC4=O)C3)n2)C1` [Example 40, 1-((3S,4S)-4-Amino-1-(4-((S)-3-methoxypyrrolidin-1-yl)-1,3,5-triazin-2-yl)pyrrolidin-3-yl)piperidin-2-onetrifluoroacetate], the IC50 came to 566 nM. Turning to `CC(=O)N[C@H]1CCN(c2ncnc(N3C[C@H](N)[C@@H](N4CCCCC4=O)C3)n2)C1` [Example 41, N-((S)-1-{4-[(3S,4S)-3-Amino-4-(2-oxo-piperidin-1-yl)-pyrrolidin-1-yl]-[1,3,5]triazin-2-yl}-pyrrolidin-3-yl)-acetamidetrifluoroacetate], the IC50 amounted to 90 nM. The same measure, in the same setting: in the case of `N[C@H]1CN(c2ncnc(N3CC[C@@H](NC(=O)C(F)(F)F)C3)n2)C[C@@H]1N1CCCCC1=O` [Example 42, N-((R)-1-(4-((3S,4S)-3-Amino-4-(2-oxopiperidin-1-yl)pyrrolidin-1-yl)-1,3,5-triazin-2-yl)pyrrolidin-3-yl)-2,2,2-trifluoroacetamidetrifluoroacetate] it was 80 nM. As for `CC1(O)CCN(c2ncnc(N3C[C@H](N)[C@@H](N4CCCCC4=O)C3)n2)C1` (stereo partly drawn) [Example 44, 1-((3S,4S)-4-amino-1-(4-(3-hydroxy-3-methylpyrrolidin-1-yl)-1,3,5-triazin-2-yl)pyrrolidin-3-yl)piperidin-2-onetrifluoroacetate], the IC50 is 316 nM. One may read the inhibition as how much of the control response was suppressed. With `CC1(C)CN(c2ncnc(N3C[C@H](N)[C@@H](N4CCCCC4=O)C3)n2)CC1(C)C` [Example 46, 1-((3S,4S)-4-amino-1-(4-(3,3,4,4-tetramethylpyrrolidin-1-yl)-1,3,5-triazin-2-yl)pyrrolidin-3-yl)piperidin-2-one], the inhibition at 0.3 µM was 6.8%. With `N[C@H]1CN(c2ncnc(N3CCCCC3)n2)C[C@@H]1N1CCCCC1=O` [Example 47, 1-[(3S,4S)-4-Amino-1-(4-piperidin-1-yl-[1,3,5]triazin-2-yl)-pyrrolidin-3-yl]-piperidin-2-onetrifluoroacetate], the IC50 was found to be 315 nM. With `N[C@H]1CN(c2cc(N3CC(F)C3)ncn2)C[C@@H]1N1CCCC1=O` [Example 48, 1-((3S,4S)-4-Amino-1-(6-(3-fluoroazetidin-1-yl)pyrimidin-4-yl)pyrrolidin-3-yl)pyrrolidin-2-onedihydrochloride], the IC50 was found to be 1740 nM. With `N[C@H]1CN(c2ncnc(N3CC(Oc4ccc(F)c(F)c4)C3)n2)C[C@@H]1N1CCCCC1=O.O=C(O)C(F)(F)F` [Example 49, 1-((3S,4S)-4-Amino-1-(4-(3-(3,4-difluorophenoxy)azetidin-1-yl)-1,3,5-triazin-2-yl)pyrrolidin-3-yl)piperidin-2-onetrifluoroacetate], the “DPP-IV Percent Inhibition at 300 nM” value is 19.6%(4).

As to `N[C@H]1CN(c2ncnc(N3Cc4ccccc4C3)n2)C[C@@H]1N1CC(F)(F)CCC1=O` [Example 50, 1-{(3S,4S)-4-amino-1-[4-(1,3-dihydro-isoindol-2-yl)-[1,3,5]triazin-2-yl]-pyrrolidin-3-yl}-5,5-difluoro-piperidin-2-one], the IC50 was found to be 19.2 nM.

Turning to `N[C@H]1CN(c2ncnc(N3Cc4ccccc4C3)n2)C[C@@H]1N1CCCCC1=O` [Example 51, 1-{(3S,4S)-4-Amino-1-[4-(1,3-dihydro-isoindol-2-yl)-[1,3,5]triazin-2-yl]-pyrrolidin-3-yl}-piperidin-2-onetrifluoroacetate], the IC50 is 48.3 nM. On to `N[C@H]1CN(c2cc(N3Cc4ccccc4C3)ncn2)C[C@@H]1N1CCCC1=O` [Example 52, 1-((3S,4S)-4-Amino-1-(6-(isoindolin-2-yl)pyrimidin-4-yl)pyrrolidin-3-yl)pyrrolidin-2-onehydrochloride], for which the IC50 was 176 nM.

`N[C@H]1CN(c2cc(N3Cc4ccc(C(F)(F)F)cc4C3)ncn2)C[C@@H]1N1CCCCC1=O` [Example 53, 1-((3S,4S)-4-amino-1-(6-(5-(trifluoromethyl)isoindolin-2-yl)pyrimidin-4-yl)pyrrolidin-3-yl)piperidin-2-onetrifluoroacetate]: the 50% inhibitory concentration (IC50) stood at 92.4 nM. On to `N[C@H]1CN(c2cc(N3Cc4cc(Cl)c(Cl)cc4C3)ncn2)C[C@@H]1N1CCCCC1=O` [Example 54, 1-((3S,4S)-4-amino-1-(6-(5,6-dichloroisoindolin-2-yl)pyrimidin-4-yl)pyrrolidin-3-yl)piperidin-2-one], for which the inhibition at 0.3 µM was determined as 32.6%. For `Cc1ccc(C)c2c1CN(c1cc(N3C[C@H](N)[C@@H](N4CCCCC4=O)C3)ncn1)C2` [Example 55, 1-{(3S,4S)-4-Amino-1-[6-(4,7-dimethyl-1,3-dihydro-isoindol-2-yl)-pyrimidin-4-yl]-pyrrolidin-3-yl}-piperidin-2-one], the IC50 was found to be 101 nM. On the same count and under the same terms, the result for `N[C@H]1CN(c2ncnc(N3CCc4ccccc4C3)n2)C[C@@H]1N1CCCCC1=O` [Example 56, 1-{(3S,4S)-4-Amino-1-[4-(3,4-dihydro-1H-isoquinolin-2-yl)-[1,3,5]triazin-2-yl]-pyrrolidin-3-yl}-piperidin-2-onetrifluoroacetate] reads 85.3 nM; that for `N[C@H]1CN(c2cc(N3CCc4ccccc4C3)ncn2)C[C@@H]1N1CCCC1=O` [Example 57, 1-((3S,4S)-4-Amino-1-(6-(3,4-dihydroisoquinolin-2(1H)-yl)pyrimidin-4-yl)pyrrolidin-3-yl)pyrrolidin-2-onehydrochloride], 317 nM.

Take `CNS(=O)(=O)c1cccc2c1CCN(c1ncnc(N3C[C@H](N)[C@@H](N4CCCCC4=O)C3)n1)C2` [Example 58, 2-(4-((3S,4S)-3-Amino-4-(2-oxopiperidin-1-yl)pyrrolidin-1-yl)-1,3,5-triazin-2-yl)-N-methyl-1,2,3,4-tetrahydroisoquinoline-5-sulfonamidetrifluoroacetate]: the IC50 was found to be 11.6 nM.

With `COc1cc2c(cc1OC)CN(c1ncnc(N3C[C@H](N)[C@@H](N4CCCCC4=O)C3)n1)CC2.O=C(O)C(F)(F)F` [Example 59, 1-((3S,4S)-4-Amino-1-(4-(6,7-dimethoxy-3,4-dihydroisoquinolin-2(1H)-yl)-1,3,5-triazin-2-yl)pyrrolidin-3-yl)piperidin-2-onetrifluoroacetate], the “DPP-IV Percent Inhibition at 300 nM” value was 44.3%(4). Turning to `COc1cc2c(cc1OC)CN(c1cc(N3C[C@H](N)[C@@H](N4CCCC4=O)C3)ncn1)CC2` [Example 60, 1-((3S,4S)-4-Amino-1-(6-(3,4-dihydro-6,7-dimethoxyisoquinolin-2(1H)-yl)pyrimidin-4-yl)pyrrolidin-3-yl)pyrrolidin-2-onehydrochloride], the IC50 came out at 1260 nM. With `N[C@H]1CN(c2cc(N3CCc4ccccc4CC3)ncn2)C[C@@H]1N1CCCC1=O` [Example 61, 1-((3S,4S)-4-Amino-1-(6-(1,2,4,5-tetrahydrobenzo[d]azepin-3-yl)pyrimidin-4-yl)pyrrolidin-3-yl)pyrrolidin-2-onehydrochloride], the IC50 turned out to be 787 nM. As for `N[C@H]1CN(c2cc(N3CCc4ncsc4C3)ncn2)C[C@@H]1N1CCCC1=O` [Example 62, 1-((3S,4S)-4-Amino-1-(6-(6,7-dihydrothiazolo[5,4-c]pyridin-5(4H)-yl)pyrimidin-4-yl)pyrrolidin-3-yl)pyrrolidin-2-onedihydrochloride], the IC50 is 640 nM. Turning to `N[C@H]1CN(c2cc(N3CCc4cncnc4C3)ncn2)C[C@@H]1N1CCCC1=O` [Example 63, 1-((3S,4S)-4-Amino-1-(6-(5,6-dihydropyrido[3,4-d]pyrimidin-7(8H)-yl)pyrimidin-4-yl)pyrrolidin-3-yl)pyrrolidin-2-onedihydrochloride], the IC50 stood at 1990 nM. The same measure, in the same setting: the result for `N[C@H]1CN(c2cc(N3CCc4nc[nH]c4C3)ncn2)C[C@@H]1N1CCCC1=O` [Example 64, 1-((3S,4S)-4-Amino-1-(6-(6,7-dihydro-3H-imidazo[4,5-c]pyridin-5(4H)-yl)pyrimidin-4-yl)pyrrolidin-3-yl)pyrrolidin-2-onedihydrochloride] reads 2480 nM; that for `N[C@H]1CN(c2cc(N3CCc4sccc4C3)ncn2)C[C@@H]1N1CCCC1=O` [Example 65, 1-((3S,4S)-4-Amino-1-(6-(6,7-dihydrothieno[3,2-c]pyridin-5(4H)-yl)pyrimidin-4-yl)pyrrolidin-3-yl)pyrrolidin-2-onehydrochloride], 547 nM. With `N[C@H]1CN(c2cc(N3CCc4[nH]ncc4C3)ncn2)C[C@@H]1N1CCCC1=O` [Example 66, 1-((3S,4S)-4-Amino-1-(6-(6,7-dihydro-1H-pyrazolo[4,3-c]pyridin-5(4H)-yl)pyrimidin-4-yl)pyrrolidin-3-yl)pyrrolidin-2-onedihydrochloride], the IC50 was 395 nM. As for `Cn1nc(C(F)(F)F)c2c1CCN(c1ncnc(N3C[C@H](N)[C@@H](N4CCCCC4=O)C3)n1)C2` [Example 67, 1-((3S,4S)-4-amino-1-(4-(1-methyl-3-(trifluoromethyl)-6,7-dihydro-1H-pyrazolo[4,3-c]pyridin-5(4H)-yl)-1,3,5-triazin-2-yl)pyrrolidin-3-yl)piperidin-2-one], the inhibition at 0.3 µM was 17.9%. As for `N[C@H]1CN(c2ncnc(N3CCS(=O)(=O)CC3)n2)C[C@@H]1N1CCCCC1=O` [Example 68, 1-{(3S,4S)-4-Amino-1-[4-(1,1-dioxo-6-thiomorpholin-4-yl)-[1,3,5]triazin-2-yl]-pyrrolidin-3-yl}-piperidin-2-onetrifluoroacetate], the IC50 amounted to 141 nM. `N[C@H]1CN(c2cc(N3CCS(=O)(=O)CC3)ncn2)C[C@@H]1N1CCCC1=O` [Example 69, 1-((3S,4S)-4-Amino-1-[6-(1,1-dioxo-6-thiomorpholin-4-yl)-pyrimidin-4-yl]-pyrrolidin-3-yl)pyrrolidin-2-onedihydrochloride]: the IC50 is 1060 nM.
